From the supplement of paper PMC10307832

What was measured:
Experiment in all cases: relative viability (nuclei count vs DMSO), 5 days (fraction); higher = more cells survive
[1] = compound: C1=CC=C2C(=C1)N=C(S2)C(C#N)C3=NC(=NC=C3)NCCC4=CN=CC=C4 + CC(=O)Nc1cccc(-n2c(=O)n(C3CC3)c(=O)c3c(Nc4ccc(I)cc4F)n(C)c(=O)c(C)c32)c1 [Trametinib] (partner 0.02 µM)
How it was run: (§1)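 Nuclei were stained with Hoechst during a one-step fixation (final 0.05% Triton X-100, 1% formaldehyde, 1 ug/ml Hoechst) carried out 5 days after dosing, then counted on 4× images. The cells, lung cancer lines in 1536-well plates, had been dosed by pin tool the day after seeding with one drug alone or a fixed anchor-drug dose plus five library-drug doses (not always all listed) in √10 steps. Relative viability is the nuclei count in treated wells divided by that in vehicle wells, and each value is the median of duplicate plates.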

[2] = compound: C1=CC=C2C(=C1)N=C(S2)C(C#N)C3=NC(=NC=C3)NCCC4=CN=CC=C4 + CC(C)C[C@H](NC(=O)[C@H](Cc1ccccc1)NC(=O)c1cnccn1)B(O)O [Bortezomib] (partner 0.002 µM)
How it was run: as §1

[3] = compound: COc1cc(N2CCC(N3CCN(C)CC3)CC2)ccc1Nc1ncc(Cl)c(Nc2ccccc2S(=O)(=O)C(C)C)n1 [NVP-TAE684] + CC(=O)c1c(C)c2cnc(Nc3ccc(N4CCNCC4)cn3)nc2n(C2CCCC2)c1=O [Palbociclib] (partner 0.5 µM)
How it was run: as §1

[4] = compound: COc1cc(N2CCC(N3CCN(C)CC3)CC2)ccc1Nc1ncc(Cl)c(Nc2ccccc2S(=O)(=O)C(C)C)n1 [NVP-TAE684] + O=C(c1cc(Cc2n[nH]c(=O)c3ccccc23)ccc1F)N1CCN(C(=O)C2CC2)CC1 [Olaparib] (partner 8 µM)
How it was run: as §1

Cell Line	relative viability ([1]; first compound 0.005 µM)	relative viability ([1]; first compound 0.01581 µM)	relative viability ([1]; first compound 0.05 µM)	relative viability ([1]; first compound 0.1581 µM)	relative viability ([1]; first compound 0.5 µM)	relative viability ([2]; first compound 0.005 µM)	relative viability ([2]; first compound 0.01581 µM)	relative viability ([2]; first compound 0.05 µM)	relative viability ([2]; first compound 0.1581 µM)	relative viability ([2]; first compound 0.5 µM)	relative viability ([3]; first compound 0.2 µM)	relative viability ([3]; first compound 0.6325 µM)	relative viability ([3]; first compound 2 µM)	relative viability ([4]; first compound 0.2 µM)	relative viability ([4]; first compound 0.6325 µM)	relative viability ([4]; first compound 2 µM)
201T	0.675	0.756	0.739	0.748	0.693	1.1	1.09	1.09	1.09	1.11	0.358	0.333	0.312	0.886	0.823	0.815
A549														0.308	0.387	0.3
A-427	0.882	0.714	0.683	0.81	0.804	0.934	1.07	0.968	1.02	0.974	0.539	0.527	0.431	0.814	0.674	0.631
ABC-1						0.348	0.292	0.262	0.313	0.387	0.635	0.759	0.363	0.636	0.692	0.37
BEN	1.08	1.11	1.15	1.05	1.2	0.699	0.818	0.869	1.02	0.893	0.486	0.479	0.495	1.04	0.971	0.894
CAL-12T	0.278	0.327	0.395	0.34	0.384	0.83			1.2	0.54	0.357	0.344	0.186	0.664	0.781	0.267
COR-L23	0.582	0.547	0.597	0.717	0.608	0.891	1	1.08	1.16	0.925	0.307	0.209	0.152	0.273	0.282	0.281
COR-L 105	0.379	0.423	0.412	0.474	0.498	0.725	0.583	0.723	0.783	0.666	0.4	0.393	0.297	0.695	0.595	
Calu-6						0.943	0.946	0.912	1.02	0.915				0.657	0.519	0.357
ChaGo-K-1	0.683	0.949	0.913	0.957	0.715	0.87		0.936	1.1	0.845	1.04		0.7	0.422	0.418	0.345
EBC-1						0.52	0.545	0.544	0.666	0.504				0.713	0.661	0.55
EKVX	0.228	0.328	0.282	0.299	0.294	0.94	1.13	1.1	1.31	0.996	0.358	0.351	0.34	0.868	0.678	0.464
EMC-BAC-2	1.03	0.938	0.812	0.963	0.855	0.998	1.05	1.06	1.12	0.945	0.483	0.499	0.357	0.506	0.447	0.35
EPLC-272H	0.392	0.277	0.301	0.336	0.265	0.772	0.777	0.958	1.03	0.738	0.324	0.321	0.27	0.321	0.577	0.162
H3255	0.533	0.577	0.62	0.697	0.726	0.705	0.696	0.694	0.837	0.749	0.324	0.299	0.296	0.539	0.532	0.407
HARA	0.685	0.475	0.49	1.31	0.576	1.22	1.04	1.14	1.18	0.859	0.297	0.234	0.164	0.76	0.891	0.299
HCC-15	0.396	0.418	0.369	0.378	0.356	0.835	1.02	1.15	1.13	0.835	0.63	0.7	0.587	0.745	0.748	0.577
HCC-44	1.06	1.1	1.02	1.07	0.967	0.87	0.878	0.877	0.961	0.882	1.01	0.986	0.867	0.997	1.07	0.905
HCC-78	1.01	0.782	0.924	0.693	0.729	0.547	0.575	0.49	0.465	0.589	0.487	0.388	0.479	0.727	0.859	0.406
HCC-366	0.281	0.378	0.314	0.404	0.307	0.85	1.1	1.07	1.3	0.927	0.352	0.4	0.166	0.352	0.326	0.288
HCC-827	0.503	0.534	0.497	0.486	0.497	0.999	1.04	1.09	1.15	1.06	0.452	0.511	0.5	0.697	0.585	0.668

Cell Line	relative viability ([1]; first compound 0.005 µM)	relative viability ([1]; first compound 0.01581 µM)	relative viability ([1]; first compound 0.05 µM)	relative viability ([1]; first compound 0.1581 µM)	relative viability ([1]; first compound 0.5 µM)	relative viability ([2]; first compound 0.005 µM)	relative viability ([2]; first compound 0.01581 µM)	relative viability ([2]; first compound 0.05 µM)	relative viability ([2]; first compound 0.1581 µM)	relative viability ([2]; first compound 0.5 µM)	relative viability ([3]; first compound 0.2 µM)	relative viability ([3]; first compound 0.6325 µM)	relative viability ([3]; first compound 2 µM)	relative viability ([4]; first compound 0.2 µM)	relative viability ([4]; first compound 0.6325 µM)	relative viability ([4]; first compound 2 µM)
HOP-62	0.359	0.394	0.394	0.37	0.366	0.798	0.576	0.907	1.09	0.738	0.54	0.501	0.491	0.291	0.33	0.811
IA-LM							0.844	0.697	0.839	0.855				0.745	0.799	0.638
LC-2-ad	0.881	0.979	0.891	0.928	0.829	1	1.08	1.01	1.08	0.944	0.43	0.482	0.32	0.75	0.675	0.464
LCLC-97TM1	0.152	0.202	0.172	0.239	0.2		0.356	0.627	0.754	0.291	0.251	0.249	0.0774	0.443	0.326	0.154
LCLC-103H	0.648	0.735	0.692	0.695	0.659	0.96	0.984	1.07	1.23	0.91	0.482	0.447	0.413	0.794	0.783	0.726
LK-2	0.535	0.604	0.907	0.74	0.838						0.614	0.756	0.296	0.698	0.698	0.451
NCI-H358	0.125	0.132	0.113	0.139	0.15						0.125	0.121	0.0895	0.637	0.579	0.275
NCI-H522	0.98	0.846	0.766	0.755	0.761						0.973	0.99	0.893	0.642	0.664	0.662
NCI-H596	0.7	0.86	0.762	0.777	0.765	0.72	0.969	0.938	1.43	1.16				0.66	0.595	0.537
NCI-H1299						1.08	1.08	1.04	1.01	1.05				0.979	1.02	0.682
NCI-H1395	0.983		0.949	1.2	0.979						0.618	0.639	0.54	0.463	0.422	0.384
NCI-H1563						0.808	0.769	0.886	0.873	0.798						
NCI-H1648		0.486		0.499	0.498						0.241	0.295	0.202	0.45	0.863	0.287
NCI-H1703						0.318	0.416	0.307	0.33	0.466				0.368	0.413	0.14
NCI-H1793		0.397	0.423	0.475	0.488						0.297	0.302	0.239	1.01	0.841	0.508
NCI-H1944	0.429	0.463	0.379	0.405	0.398						0.313	0.321	0.236	0.373	0.421	0.419
NCI-H2170	0.623	0.924	0.884	1.04	0.655						0.33	0.382	0.375	0.583	0.58	0.518
NCI-H2342	0.733	0.89	0.867	0.798	0.844						0.499	0.459	0.457	0.419	0.427	0.3
SK-MES-1	0.576	0.555	0.531	0.604	0.629						0.347	0.313	0.296	0.794	0.668	0.405
SW 900	0.586	0.806	0.584	1.06	0.648						0.576	0.456	0.43	0.885	0.953	0.68
